According to patent US7521480B2, “Aryl ureido benzoic acid derivatives and their use” (Neurosearch, priority 2002, dated 2009):

Key:
[1] = target: T1, GluR5 receptor (Homo sapiens, UniProt P39086); test: GluR5 functional assay: inhibition of domoate-induced increase in Cai (FLIPR); format: cell-based; conditions: HEK 293 cells stably expressing GluR5; domoate 2 μM; Fluo-4 FLIPR, 25° C.
T1 construct: expressed in transfected cells; host or cells: HEK 293
From the text: (§1) This example describes cell-based assays carried out using human embryonic HEK 293 cells stably expressing GluR5 and GluR6 receptors, respectively, in which assays the inhibition of domoate-induced increase in Cai is used as a measure for glutamate antagonist activity of test substances.
(§2) The intracellular free calcium concentration (Cai) is regulating the majority of metabolic processes in mammalian cells. Elevations of Cai in excitable tissues such as neurones are seen after specific activation of receptor operated calcium channels (e.g. glutamate, receptors), or after depolarisation and opening of voltage operated calcium channels. Some neurotransmitters and neuro-modulator increase Cai by activating G-protein coupled ionophors or by release of Cai from intracellular stores via the second messenger IP3.
(§3) Cai is determined by fluorometric methods in a Fluorescent Image Plate Reader (FLIPR). Calcium-chelating fluorochromes (tetracarboxylic acids) are loaded into the cells as acetoxymethyl esters and subsequently released by an unspecific intracellular esterase. The free acids, which are impermeable to the cell membrane, are maintained in the cell for hours. The fluorescence spectrum (either EXmax, EMmax or both) is changed by the binding of calcium, and the fluorescence is directly proportional to the Cai.
(§4) The present method uses the fluorochromes Fluo-3 or Fluo-4 as the calcium-chelator. Fluo-3/Fluo-4 is virtually non-fluorescent without calcium, but the calcium-Fluo-3/Fluo-4 complexes show a bright fluorescence (EMmax=526 nm) after excitation around 500 nm (EXmax=505 nm). This fluorescence spectrum is similar to the spectrum of fluorescein. Since excitation and emission is in the visible light region of the spectrum, standard equipment without quarts optics may be used.
The kainate subtype of ionotropic glutamate receptors exists of two high affinity subunits—KA1 and KA2, and three low affinity subunits—GluR5-7. The ion channel in the GluR5 receptor subtype can be made permeable for calcium by substitution of an arginine (R) to a glutamine (Q) in the pore region. The stably expressed human GluR5 receptors used here are calcium permeable (Q), which makes them ideal for fluorescence measurements. […]
(§5) After the loading period, the loading media is aspirated and the cells are washed twice with 100 μl Na^+ free Ringer (NN: 10 mM HEPES, 140 mM Choline chloride, 5 mM KCl, 1 mM MgCl2, 10 mM CaCl2, pH 7.4) to remove extracellular dye. 100 μl NN is added to each well, and the fluorescence is measured in the FLIPR.
(§6) Cells are pre-incubated for 1.5 min with test compound (50 μl) before addition of domoate (50 μl) to a final concentration of 2 μM when determined on GluR5 and 0.2 μM when determined on GluR6. […]

[2] = target: T2, GluR6 receptor (Homo sapiens, UniProt Q13002); test: GluR6 functional assay: inhibition of domoate-induced increase in Cai (FLIPR); format: cell-based; conditions: HEK 293 cells stably expressing GluR6; domoate 0.2 μM; Fluo-4 FLIPR, 25° C.
T2 construct: expressed in transfected cells; host or cells: HEK 293
From the text: as §1, §2, §3
as §4, with “used. […]” for “used.”
as §5, §6
• Temperature: 25° C. • Preincubation: 50 μl test solution at a rate of 30 μl/sec and starting height of 100 μl • […] phase: 50 μl domoate solution (8 μM) at a rate of 35 μl/sec and starting height of 150 μl • Reading intervals: preincubation—10 sec×7 and 3 sec×3 antagonist phase—3 sec×17 and 10 sec×12 […]

T2 sequence (Q13002 32-908): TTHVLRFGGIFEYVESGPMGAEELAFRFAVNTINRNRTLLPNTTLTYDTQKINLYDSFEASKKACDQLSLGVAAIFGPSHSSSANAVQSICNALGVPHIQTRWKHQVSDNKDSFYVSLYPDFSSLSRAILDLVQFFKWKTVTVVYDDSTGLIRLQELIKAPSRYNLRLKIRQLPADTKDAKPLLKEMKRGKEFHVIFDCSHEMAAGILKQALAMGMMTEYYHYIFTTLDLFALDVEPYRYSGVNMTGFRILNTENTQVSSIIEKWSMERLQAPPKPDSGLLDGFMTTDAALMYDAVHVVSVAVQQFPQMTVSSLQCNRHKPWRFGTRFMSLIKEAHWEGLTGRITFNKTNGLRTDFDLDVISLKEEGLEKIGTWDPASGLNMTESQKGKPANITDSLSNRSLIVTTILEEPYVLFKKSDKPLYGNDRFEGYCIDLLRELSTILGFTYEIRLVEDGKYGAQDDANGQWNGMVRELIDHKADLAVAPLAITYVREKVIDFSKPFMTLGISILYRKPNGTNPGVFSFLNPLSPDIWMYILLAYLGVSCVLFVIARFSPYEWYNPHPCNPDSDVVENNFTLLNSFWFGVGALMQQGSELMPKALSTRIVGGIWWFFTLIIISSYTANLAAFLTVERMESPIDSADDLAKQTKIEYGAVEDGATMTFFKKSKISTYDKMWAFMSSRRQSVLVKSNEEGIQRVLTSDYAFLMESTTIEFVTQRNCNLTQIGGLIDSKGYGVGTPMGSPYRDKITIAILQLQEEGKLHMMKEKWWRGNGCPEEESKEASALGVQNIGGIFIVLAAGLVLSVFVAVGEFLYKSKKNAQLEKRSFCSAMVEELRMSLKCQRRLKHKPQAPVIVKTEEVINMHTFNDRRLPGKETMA
T1 sequence (P39086 31-918): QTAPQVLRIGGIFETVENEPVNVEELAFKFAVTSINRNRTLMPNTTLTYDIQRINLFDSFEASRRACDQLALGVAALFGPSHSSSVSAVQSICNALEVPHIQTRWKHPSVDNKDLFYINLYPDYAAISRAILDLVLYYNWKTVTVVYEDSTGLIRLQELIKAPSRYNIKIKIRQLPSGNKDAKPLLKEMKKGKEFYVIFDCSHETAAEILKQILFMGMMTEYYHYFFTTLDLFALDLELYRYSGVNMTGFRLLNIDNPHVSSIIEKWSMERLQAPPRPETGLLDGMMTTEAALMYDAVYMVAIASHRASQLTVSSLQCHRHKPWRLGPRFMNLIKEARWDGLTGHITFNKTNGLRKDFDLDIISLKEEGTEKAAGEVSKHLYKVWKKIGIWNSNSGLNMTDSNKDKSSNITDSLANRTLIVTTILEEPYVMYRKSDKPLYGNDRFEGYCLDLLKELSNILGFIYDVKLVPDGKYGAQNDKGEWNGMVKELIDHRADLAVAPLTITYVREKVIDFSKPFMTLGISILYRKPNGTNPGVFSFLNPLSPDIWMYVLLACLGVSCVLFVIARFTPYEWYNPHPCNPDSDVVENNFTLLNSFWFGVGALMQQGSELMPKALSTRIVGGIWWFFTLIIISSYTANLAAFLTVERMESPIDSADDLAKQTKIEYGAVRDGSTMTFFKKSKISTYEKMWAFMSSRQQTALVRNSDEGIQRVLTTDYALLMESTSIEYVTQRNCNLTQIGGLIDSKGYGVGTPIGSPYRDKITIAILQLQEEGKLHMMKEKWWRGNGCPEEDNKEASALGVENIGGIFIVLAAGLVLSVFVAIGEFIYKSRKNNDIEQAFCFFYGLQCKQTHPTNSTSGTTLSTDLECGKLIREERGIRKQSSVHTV

Molecule	melting point	IC50 [1]	IC50 [2]
O=C(Nc1ccc(-c2ccccc2)cc1)Nc1cc(Cl)ccc1C(=O)O	193 to 194 °C		
O=C(Nc1cccc(Cl)c1)Nc1cc(Cl)ccc1C(=O)O [Compound C14, 4-Chloro-2-[3-(3-chloro-phenyl)-ureido]-benzoic acid]	207 to 209 °C	1300 nM	37 µM
Cc1cc(S(=O)(=O)O)c(NC(=O)Nc2cccc(Br)c2)cc1Cl [Compound 1a, 2-[3-(3-Bromo-phenyl)-ureido]-4-chloro-5-methyl-benzenesulfonic acid]		1100 nM	32 µM
O=C(Nc1cc(Cl)ccc1C(=O)O)Nc1ccccc1C(F)(F)F	173 to 175 °C		
O=C(Nc1cccc(C(F)(F)F)c1)Nc1cc(Cl)ccc1-c1noc(=O)[nH]1	246 to 248 °C (dec.)		
O=C(Nc1cccc(Br)c1)Nc1cc(Cl)ccc1-c1noc(=O)[nH]1	210 to 211 °C (dec.)		
Cc1cc(S(=O)(=O)O)c(NC(=O)Nc2ccc3ccccc3c2)cc1Cl	> 300 °C		
O=C(Nc1ccc2c(c1)-c1ccccc1C2=O)Nc1cc(Cl)ccc1C(=O)O	260 to 263 °C (dec.)		
Cc1cc(S(=O)(=O)O)c(NC(=O)Nc2cc3ccccc3[nH]2)cc1Cl	284 to 286 °C (dec.)		
O=C(Nc1cc(Cl)ccc1C(=O)O)Nc1ccccc1-c1ccccc1	208 to 209 °C		
2-[3-(3-Bromo-phenyl)-ureido]-4-chloro-benzenesulfonic acid, triethylammonium salt [Compound A1]		1500 nM	10 µM
COc1ccccc1NC(=O)Nc1cc(Cl)ccc1C(=O)O	181 to 183 °C		
O=C(Nc1ccc2ccccc2c1)Nc1cc(Cl)ccc1-c1nnn[nH]1	167 to 169 °C (dec.)		
O=C(Nc1cc2ccccc2[nH]1)Nc1cc(Cl)ccc1S(=O)(=O)O	277 to 279 °C (dec.)		
O=C(Nc1ccccn1)Nc1cc(Cl)ccc1C(=O)O	222 to 224 °C		
O=C(Nc1ccc2ccccc2c1)Nc1cc(Cl)ccc1C(=O)O [Compound E2, 4-Chloro-2-(3-naphtalen-2-yl-ureido)-benzoic acid]	176 to 179 °C	1200 nM	70 µM

Continued, in another order:

melting point	Molecule	IC50 [1]	IC50 [2]
194 to 195 °C	COc1ccc(NC(=O)Nc2cc(Cl)ccc2C(=O)O)cc1		
181 to 183 °C	O=C(Nc1cccc(-c2ccccc2)c1)Nc1cc(Cl)ccc1C(=O)O		
195 to 197 °C	O=C(Nc1ccccc1Br)Nc1cc(Cl)ccc1C(=O)O		
192 to 193 °C	O=C(Nc1cccc(I)c1)Nc1cc(Cl)ccc1C(=O)O		
179 to 180 °C (dec.)	O=C(Nc1ccccc1O)Nc1cc(Cl)ccc1C(=O)O		
183 to 185 °C	O=C(Nc1ccc2c(c1)OCO2)Nc1cc(Cl)ccc1C(=O)O		
205 to 207 °C	O=C(Nc1ccc(Cl)cc1)Nc1cc(Cl)ccc1C(=O)O		
209 to 211 °C	O=C(Nc1cccc(O)c1)Nc1cc(Cl)ccc1C(=O)O		
194 to 195 °C	O=C(Nc1ccc(F)cc1)Nc1cc(Cl)ccc1C(=O)O		
199 to 200 °C	O=C(Nc1cccs1)Nc1cc(Cl)ccc1C(=O)O		
212 to 214 °C (dec.)	O=C(Nc1ccc(O)cc1)Nc1cc(Cl)ccc1C(=O)O		
209 to 210 °C (dec.)	O=C(Nc1ccc(I)cc1)Nc1cc(Cl)ccc1C(=O)O		
179 to 182 °C	O=C(Nc1cccc(C(F)(F)F)c1)Nc1cc(Cl)ccc1C(=O)O		
186 to 188 °C	O=C(Nc1ccccc1)Nc1cc(Cl)ccc1C(=O)O		
